Reference: ChEMBL document CHEMBL6071170, “Development of novel focal adhesion kinase (FAK) inhibitors for targeting cancer: Structural insights and therapeutic potential” (Eur J Med Chem, 2024)

Tests used:
Focal adhesion kinase 1 [1] = target: T1, Focal adhesion kinase 1 (Homo sapiens, UniProt Q05397); assay: Inhibition of N-terminal his-tagged human (1 to 422 residues) FAK
Focal adhesion kinase 1 [2] = target: T1, Focal adhesion kinase 1; assay: Inhibition of FAK (unknown origin)
Focal adhesion kinase 1 [3] = target: T1, Focal adhesion kinase 1; assay: Inhibition of human FAK by FRET assay
[4] = target: Protein cereblon/Focal adhesion kinase 1 (Homo sapiens, UniProt Q05397+Q96SW2); assay: PROTAC activity at CRBN/FAK in human PC3 cells assessed as protein degradation incubated for 12 hrs by Western blot analysis relative to control; type: cell-based; settings: pc-3
[5] = target: Fibroblast growth factor receptor (Homo sapiens, UniProt P22607+P11362+P22455+P21802); assay: Inhibition of human recombinant FGFR by FRET assay; type: protein assay
Focal adhesion kinase 1 [6] = target: T1, Focal adhesion kinase 1; assay: Binding affinity to FAK (unknown origin) assessed as inhibition constant
[7] = target: Epidermal growth factor receptor (Homo sapiens, UniProt P00533, T790M); assay: Inhibition of EGFR T790M mutant (unknown origin)
Focal adhesion kinase 1 [8] = target: T1, Focal adhesion kinase 1; assay: Inhibition of FAK (unknown origin) by ADP-Glo kinase assay
[9] = target: T2, Protein-tyrosine kinase 2-beta (Homo sapiens, UniProt Q14289); assay: Inhibition of PYK2 (unknown origin)
[10] = Oral bioavailability in mouse; type: ADME, organism-based; settings: in vivo
[11] = Plasma stability in human assessed as half life by LC-MS/MS analysis; type: ADME, cell-free
BXPC-3 = assay: Antiproliferative activity against human BXPC-3 cells; type: functional, cell-based
[12] = target: T3, Protein deacetylase HDAC6 (Homo sapiens, UniProt Q9UBN7); assay: Inhibition of HDAC6 (unknown origin)
T3 sequence (Q9UBN7 whole entry): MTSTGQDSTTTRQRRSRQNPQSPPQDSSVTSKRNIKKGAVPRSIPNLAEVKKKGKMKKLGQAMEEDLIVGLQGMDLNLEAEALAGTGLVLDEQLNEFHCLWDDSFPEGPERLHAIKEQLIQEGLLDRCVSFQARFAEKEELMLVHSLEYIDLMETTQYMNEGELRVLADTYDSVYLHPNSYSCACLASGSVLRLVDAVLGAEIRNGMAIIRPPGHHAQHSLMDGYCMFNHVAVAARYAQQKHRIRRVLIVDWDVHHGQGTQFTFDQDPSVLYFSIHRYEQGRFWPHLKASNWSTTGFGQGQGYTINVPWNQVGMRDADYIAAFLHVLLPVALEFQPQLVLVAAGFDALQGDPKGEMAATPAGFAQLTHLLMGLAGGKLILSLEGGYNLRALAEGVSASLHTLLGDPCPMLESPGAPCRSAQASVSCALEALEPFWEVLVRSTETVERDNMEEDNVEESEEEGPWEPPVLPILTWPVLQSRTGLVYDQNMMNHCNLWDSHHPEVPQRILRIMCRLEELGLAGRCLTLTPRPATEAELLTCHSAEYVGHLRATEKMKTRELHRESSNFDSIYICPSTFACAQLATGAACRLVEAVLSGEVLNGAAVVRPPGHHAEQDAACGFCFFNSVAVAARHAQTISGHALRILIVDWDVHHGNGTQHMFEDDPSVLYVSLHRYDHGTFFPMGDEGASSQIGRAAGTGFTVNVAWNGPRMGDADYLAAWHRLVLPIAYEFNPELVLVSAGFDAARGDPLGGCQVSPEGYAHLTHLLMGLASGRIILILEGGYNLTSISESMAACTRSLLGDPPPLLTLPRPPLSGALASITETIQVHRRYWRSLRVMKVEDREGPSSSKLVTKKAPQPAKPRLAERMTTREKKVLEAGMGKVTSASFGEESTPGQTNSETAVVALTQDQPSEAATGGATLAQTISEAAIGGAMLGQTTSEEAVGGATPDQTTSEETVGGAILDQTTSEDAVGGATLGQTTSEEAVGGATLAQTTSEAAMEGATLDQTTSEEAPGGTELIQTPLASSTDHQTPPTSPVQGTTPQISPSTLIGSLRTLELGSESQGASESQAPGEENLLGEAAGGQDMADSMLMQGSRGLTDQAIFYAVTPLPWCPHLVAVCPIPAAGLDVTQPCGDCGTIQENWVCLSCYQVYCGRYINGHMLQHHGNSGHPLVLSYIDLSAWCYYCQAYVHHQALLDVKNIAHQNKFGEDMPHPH

Focal adhesion kinase 1 [13] = target: T1, Focal adhesion kinase 1; assay: Inhibition of FAK (unknown origin) by FRET analysis
Focal adhesion kinase 1 [14] = target: T1, Focal adhesion kinase 1; assay: Inhibition of FAK (unknown origin) by HTRF assay
[15] = target: Serine/threonine-protein kinase PLK1 (Homo sapiens, UniProt P53350); assay: Inhibition of PLK1 (unknown origin)
[16] = target: T2, Protein-tyrosine kinase 2-beta; assay: Inhibition of PYK2 (unknown origin) by KinomeScan assay
[17] = target: Proto-oncogene tyrosine-protein kinase ROS (Homo sapiens, UniProt P08922); assay: Inhibition of ROS1 (unknown origin)
[18] = target: ALK tyrosine kinase receptor (Homo sapiens, UniProt Q9UM73); assay: Inhibition of ALK (unknown origin)
Chain of ALK tyrosine kinase receptor (Q9UM73 whole entry): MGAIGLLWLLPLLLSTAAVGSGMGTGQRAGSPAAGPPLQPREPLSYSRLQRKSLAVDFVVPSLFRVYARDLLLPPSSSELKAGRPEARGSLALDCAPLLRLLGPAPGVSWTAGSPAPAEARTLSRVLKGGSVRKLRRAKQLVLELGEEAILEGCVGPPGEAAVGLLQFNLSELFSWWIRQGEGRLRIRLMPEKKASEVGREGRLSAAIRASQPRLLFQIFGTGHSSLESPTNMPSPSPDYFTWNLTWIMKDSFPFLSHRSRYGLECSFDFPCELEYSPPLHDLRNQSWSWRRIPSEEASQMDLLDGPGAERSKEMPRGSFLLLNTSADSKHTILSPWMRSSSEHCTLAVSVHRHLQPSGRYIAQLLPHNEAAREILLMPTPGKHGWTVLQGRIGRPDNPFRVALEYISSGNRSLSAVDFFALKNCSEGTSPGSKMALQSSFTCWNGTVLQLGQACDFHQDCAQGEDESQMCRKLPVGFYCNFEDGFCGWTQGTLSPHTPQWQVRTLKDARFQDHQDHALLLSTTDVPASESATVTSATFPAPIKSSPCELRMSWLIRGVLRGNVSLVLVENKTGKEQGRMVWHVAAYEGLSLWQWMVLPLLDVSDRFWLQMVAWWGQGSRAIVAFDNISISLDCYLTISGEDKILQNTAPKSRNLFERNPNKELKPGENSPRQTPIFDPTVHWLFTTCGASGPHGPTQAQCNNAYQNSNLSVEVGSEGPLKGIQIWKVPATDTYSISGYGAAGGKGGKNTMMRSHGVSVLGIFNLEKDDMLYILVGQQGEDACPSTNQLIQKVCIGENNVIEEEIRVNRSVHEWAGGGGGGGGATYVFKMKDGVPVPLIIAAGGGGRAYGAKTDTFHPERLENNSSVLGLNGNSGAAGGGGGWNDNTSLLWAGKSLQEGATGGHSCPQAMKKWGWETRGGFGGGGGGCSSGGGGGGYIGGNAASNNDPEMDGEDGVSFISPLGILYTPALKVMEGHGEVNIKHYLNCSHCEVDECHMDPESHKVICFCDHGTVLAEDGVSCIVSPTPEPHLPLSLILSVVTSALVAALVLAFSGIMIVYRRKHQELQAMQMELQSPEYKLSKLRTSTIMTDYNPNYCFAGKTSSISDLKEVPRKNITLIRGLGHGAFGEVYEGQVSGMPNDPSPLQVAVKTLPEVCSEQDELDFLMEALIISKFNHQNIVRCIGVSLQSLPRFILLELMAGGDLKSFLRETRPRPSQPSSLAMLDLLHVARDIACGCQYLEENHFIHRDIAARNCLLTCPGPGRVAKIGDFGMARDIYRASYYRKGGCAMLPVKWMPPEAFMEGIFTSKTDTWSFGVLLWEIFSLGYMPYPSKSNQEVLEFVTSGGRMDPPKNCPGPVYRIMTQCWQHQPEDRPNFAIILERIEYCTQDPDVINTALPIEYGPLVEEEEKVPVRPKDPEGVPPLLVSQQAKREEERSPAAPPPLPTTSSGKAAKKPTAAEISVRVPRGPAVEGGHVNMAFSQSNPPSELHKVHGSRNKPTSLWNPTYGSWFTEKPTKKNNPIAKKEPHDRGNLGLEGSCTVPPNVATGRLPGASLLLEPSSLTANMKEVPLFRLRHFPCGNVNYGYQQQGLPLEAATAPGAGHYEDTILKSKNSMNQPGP

T1 sequence (Q05397 whole entry, the tested form may be a part): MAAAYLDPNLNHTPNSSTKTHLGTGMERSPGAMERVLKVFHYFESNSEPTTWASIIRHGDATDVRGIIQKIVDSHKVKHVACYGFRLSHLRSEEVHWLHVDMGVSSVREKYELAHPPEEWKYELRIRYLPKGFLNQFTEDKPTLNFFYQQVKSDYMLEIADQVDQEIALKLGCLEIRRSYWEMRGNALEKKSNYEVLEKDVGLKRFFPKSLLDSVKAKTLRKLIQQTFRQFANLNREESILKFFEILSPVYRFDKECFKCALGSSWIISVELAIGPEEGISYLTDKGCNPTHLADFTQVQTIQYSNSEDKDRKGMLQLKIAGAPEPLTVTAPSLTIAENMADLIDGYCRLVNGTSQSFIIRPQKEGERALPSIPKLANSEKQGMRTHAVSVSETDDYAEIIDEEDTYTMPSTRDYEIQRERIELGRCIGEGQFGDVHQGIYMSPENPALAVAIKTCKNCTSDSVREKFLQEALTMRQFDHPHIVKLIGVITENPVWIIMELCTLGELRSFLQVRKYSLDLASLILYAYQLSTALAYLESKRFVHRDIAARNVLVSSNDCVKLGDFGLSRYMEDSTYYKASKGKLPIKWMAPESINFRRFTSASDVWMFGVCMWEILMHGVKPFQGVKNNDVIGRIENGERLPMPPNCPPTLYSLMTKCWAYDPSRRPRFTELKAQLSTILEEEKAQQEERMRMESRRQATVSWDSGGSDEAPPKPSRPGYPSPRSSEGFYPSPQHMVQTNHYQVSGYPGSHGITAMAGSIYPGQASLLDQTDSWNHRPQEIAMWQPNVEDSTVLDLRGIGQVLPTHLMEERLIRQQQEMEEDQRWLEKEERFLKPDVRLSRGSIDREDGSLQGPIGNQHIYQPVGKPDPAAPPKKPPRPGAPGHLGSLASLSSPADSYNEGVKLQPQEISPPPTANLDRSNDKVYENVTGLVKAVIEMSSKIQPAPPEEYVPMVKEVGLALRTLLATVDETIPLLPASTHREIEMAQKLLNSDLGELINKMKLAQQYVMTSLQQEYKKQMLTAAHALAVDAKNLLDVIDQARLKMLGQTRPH
T2 sequence (Q14289 whole entry): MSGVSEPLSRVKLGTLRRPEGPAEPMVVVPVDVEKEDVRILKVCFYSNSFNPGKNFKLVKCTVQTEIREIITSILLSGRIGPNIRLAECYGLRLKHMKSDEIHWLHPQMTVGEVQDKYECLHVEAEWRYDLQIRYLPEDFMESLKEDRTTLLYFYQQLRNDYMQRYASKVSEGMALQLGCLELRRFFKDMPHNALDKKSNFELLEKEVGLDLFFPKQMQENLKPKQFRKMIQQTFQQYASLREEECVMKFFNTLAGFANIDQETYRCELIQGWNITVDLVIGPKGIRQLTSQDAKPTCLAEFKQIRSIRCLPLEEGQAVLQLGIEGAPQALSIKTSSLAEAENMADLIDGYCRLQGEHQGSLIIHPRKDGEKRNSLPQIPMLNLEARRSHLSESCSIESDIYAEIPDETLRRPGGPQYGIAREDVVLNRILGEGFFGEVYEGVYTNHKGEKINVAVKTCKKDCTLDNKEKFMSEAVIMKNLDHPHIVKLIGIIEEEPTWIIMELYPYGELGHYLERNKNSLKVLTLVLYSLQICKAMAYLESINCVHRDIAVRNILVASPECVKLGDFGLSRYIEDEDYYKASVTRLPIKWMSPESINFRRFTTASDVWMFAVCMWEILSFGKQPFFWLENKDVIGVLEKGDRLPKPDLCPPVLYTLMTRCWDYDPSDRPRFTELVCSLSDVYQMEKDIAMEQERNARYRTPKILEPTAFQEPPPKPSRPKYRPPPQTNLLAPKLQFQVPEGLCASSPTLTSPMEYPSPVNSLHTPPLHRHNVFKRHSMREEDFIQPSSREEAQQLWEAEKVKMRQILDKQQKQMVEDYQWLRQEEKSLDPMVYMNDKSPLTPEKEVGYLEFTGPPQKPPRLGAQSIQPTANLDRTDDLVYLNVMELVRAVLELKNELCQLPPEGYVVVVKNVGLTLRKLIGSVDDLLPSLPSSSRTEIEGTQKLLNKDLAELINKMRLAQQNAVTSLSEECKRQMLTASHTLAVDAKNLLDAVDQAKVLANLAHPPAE
Chain of Protein cereblon/Focal adhesion kinase 1 (Q05397 whole entry): as the sequence (Q05397 whole entry, the tested form may be a part) above
Chain of Protein cereblon/Focal adhesion kinase 1 (Q96SW2 whole entry): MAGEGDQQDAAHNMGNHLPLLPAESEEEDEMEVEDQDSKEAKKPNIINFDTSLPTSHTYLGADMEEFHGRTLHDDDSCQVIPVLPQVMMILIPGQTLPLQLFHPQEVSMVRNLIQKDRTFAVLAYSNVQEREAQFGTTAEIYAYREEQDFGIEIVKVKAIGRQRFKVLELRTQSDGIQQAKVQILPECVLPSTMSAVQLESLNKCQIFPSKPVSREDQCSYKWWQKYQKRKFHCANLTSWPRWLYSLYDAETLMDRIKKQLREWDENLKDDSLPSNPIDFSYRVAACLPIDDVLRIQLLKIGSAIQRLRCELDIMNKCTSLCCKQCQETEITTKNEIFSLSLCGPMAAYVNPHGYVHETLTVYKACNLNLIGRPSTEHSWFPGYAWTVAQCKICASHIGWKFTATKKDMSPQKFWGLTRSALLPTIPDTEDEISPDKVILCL
Chain of Serine/threonine-protein kinase PLK1 (P53350 whole entry): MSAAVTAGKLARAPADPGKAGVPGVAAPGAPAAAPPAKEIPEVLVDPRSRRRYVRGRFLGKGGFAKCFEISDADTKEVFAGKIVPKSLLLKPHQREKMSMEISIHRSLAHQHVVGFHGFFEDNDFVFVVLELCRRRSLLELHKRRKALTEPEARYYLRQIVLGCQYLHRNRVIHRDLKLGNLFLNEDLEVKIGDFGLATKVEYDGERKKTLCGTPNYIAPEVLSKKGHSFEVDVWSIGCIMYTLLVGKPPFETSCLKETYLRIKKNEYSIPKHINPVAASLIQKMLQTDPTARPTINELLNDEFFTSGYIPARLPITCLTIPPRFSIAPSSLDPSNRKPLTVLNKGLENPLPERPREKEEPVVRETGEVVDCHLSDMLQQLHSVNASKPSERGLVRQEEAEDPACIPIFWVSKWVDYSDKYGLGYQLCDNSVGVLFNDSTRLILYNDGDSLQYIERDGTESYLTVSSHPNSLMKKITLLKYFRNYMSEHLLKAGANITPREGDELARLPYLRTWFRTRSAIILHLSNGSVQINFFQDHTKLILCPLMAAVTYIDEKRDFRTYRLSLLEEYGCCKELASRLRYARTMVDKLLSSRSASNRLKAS

Compound `OCC[N+]12CN3CN(CN(C3)C1)C2` has an IC50 (Focal adhesion kinase 1 [1]) of 0.05 µM.
For `O=C1CCc2cccc(Oc3nc(Nc4ccc(N5CCN(C(=S)SCCCN6CCOCC6)CC5)cc4)ncc3C(F)(F)F)c21`, the IC50 (Focal adhesion kinase 1 [2]) was 0.045 µM.
`CNC(=O)c1ccccc1Nc1cc(Nc2ccc(N3CCN(CC(=O)N[C@H](C(=O)N4C[C@H](O)C[C@H]4C(=O)N[C@@H](C)c4ccc(-c5scnc5C)cc4)C(C)(C)C)CC3)cc2OC)ncc1C(F)(F)F` gave an IC50 (Focal adhesion kinase 1 [3]) of 0.00158 µM.
For `Cc1ncsc1-c1ccc(CNC(=O)[C@@H]2C[C@@H](O)CN2C(=O)[C@@H](NC(=O)CCOCCOc2ccc(Nc3ncc(C(F)(F)F)c(NCc4cccc(N(C)S(C)(=O)=O)c4)n3)cc2)C(C)(C)C)cc1`, the DC50 [4] was 0.003 µM.
Compound `CNC(=O)c1ccccc1Nc1nc(Nc2ccc(N3CCN(C)CC3)cc2)nc2[nH]ccc12` has an IC50 (Focal adhesion kinase 1 [2]) of 0.0191 µM.
`CNC(=O)c1ccccc1Nc1ncnc(Nc2cc(OC)c(OC)c(OC)c2)n1` showed an IC50 [5] of 0.37 µM.
For `CONC(=O)c1ccccc1Nc1cc(Nc2cc(C)nn2C(C)C)ncc1Cl` [GSK-2256098], the Ki (Focal adhesion kinase 1 [6]) was 0.0004 µM.
`CNC(=O)c1ccccc1Nc1nc(Nc2ccc(NC(=O)CN3CCOCC3)c(C)c2)ncc1Cl` gave an IC50 [7] of 0.00389 µM and an IC50 (Focal adhesion kinase 1 [8]) of 0.00103 µM.
`CNC(=O)c1ccc(Nc2ncc(C(F)(F)F)c(NCc3nccnc3N(C)S(C)(=O)=O)n2)cc1` [DEFACTINIB] gave an IC50 [9] of 0.0006 µM.
`C=CC(=O)NCCNc1c(NCc2ccc(Nc3ncc(Cl)c(Nc4ccccc4C(=O)NC)n3)cc2)c(=O)c1=O` gave a bioavailability [10] of 21%.
`CN(c1ncccc1CNc1nc(Nc2ccc(N3CCN(CCCCCCC(=O)NCCNc4cccc5c4C(=O)N(C4CCC(=O)NC4=O)C5=O)CC3)cc2)ncc1C(F)(F)F)S(C)(=O)=O` (stereo not drawn) showed a half-life [11] greater than 3.25 h.
`Cn1cc(-c2nn3cc(-c4ccco4)nc3s2)c2ccccc21` gave an IC50 (BXPC-3) of 1.04 µM.
In the case of `CNC(=O)c1ccccc1Nc1cc(Nc2ccc(NC(=O)CCCCCCC(=O)NO)cc2)ncc1Cl`, the IC50 [12] is reported as 0.016 µM and the IC50 (Focal adhesion kinase 1 [13]) is reported as 0.132 µM.
Work on `Clc1cccc(Cn2ccc3cnc(Nc4ccc(N5CCNCC5)cc4)nc32)c1` yielded an IC50 (Focal adhesion kinase 1 [14]) of 0.0099 µM.
With `CNC(=O)c1ccccc1Nc1cc(Nc2cc(C)c(C3CCN(CCCCCCNC(=O)COc4cccc5c4C(=O)N(C4CCC(=O)NC4=O)C5=O)CC3)cc2OC(C)C)ncc1C(F)(F)F` (stereo not drawn) the IC50 (Focal adhesion kinase 1 [2]) was 0.026 µM.
Work on `O=C(CSC1Nc2ccccc2C(=O)N1c1ccccc1)N1CCN(c2ccccc2Cl)CC1` (stereo not drawn) yielded an IC50 [15] of 0.079 µM and an IC50 (Focal adhesion kinase 1 [2]) of 0.086 µM.
`CNC(=O)c1ccccc1Nc1cc(Nc2cc(C)c(C3CCNCC3)cc2OC(C)C)ncc1C(F)(F)F` showed an IC50 [16] of 0.623 µM.
`Cc1cc(Nc2ncc(Cl)c(Nc3ccccc3S(=O)(=O)C(C)C)n2)c(OC(C)C)cc1C1=CCN(C2CCOCC2)CC1` [APG-2449] showed an IC50 [17] of 0.00081 µM, an IC50 [18] of 0.0016 µM and an IC50 (Focal adhesion kinase 1 [2]) of 0.0054 µM.
